Measurements published in patent US20240238423A9, “TETRAHYDROISOQUINOLINE HETEROBIFUNCTIONAL BCL-XL DEGRADERS” (Treeline Biosciences, Inc., priority 2022, published 2024).
Like-named read-outs stand apart in the source and are kept apart here.

Target: T1, Human BCL-XL protein (N-terminal HiBiT tagged BCL-XL in HT1080 cells) (Homo sapiens, UniProt Q07817)
T1 construct: expressed in transfected cells; host or cells: HT-1080 (ATCC CCL-121), stably transduced with lentivirus pLV-UBC-N-HiBiT-BCL-XL-PGK-puro and selected with puromycin
Assay: HiBiT based degradation assay
Type: cell-based
Details: HT1080 cells expressing HiBiT-BCL-XL; for Ymin (24 h) / Ymin (6 h): BCL-XL degradation normalized with DMSO control; for DC50: BCL-XL degradation
Source text: Human BCL-XL protein coding open reading frame fused with N-terminal HiBiT coding sequence was synthesized from Integrated DNA Technologies (IDT). Next, N-HiBiT-BCL-XL sequence was cloned into pLV-UBC-PGK-Puro, a lentivirus plasmid purchased from Vectorbuilder, to generate pLV-UBC-N-HiBiT-BCL-XL-PGK-puro. Lentiviral particles were generated from Lenti-X™ 293T cells (Clontech) by co-transfection of pLV-UBC-N-HiBiT-BCL-XL-PGK-puro plasmids and lentiviral packaging plasmid mix (Cellecta). HT-1080 [HT1080](ATCC CCL-121) cells were infected with the lentivirus, and HT1080 cells stably integrated with the lentiviral vectors were established by incubation with 1 μg/mL puromycin (Thermofisher).
HT1080 cells expressing N-terminal HiBiT tagged BCL-XL were dispensed into a 384-well plate pre-spotted with compounds at varying concentrations. Three thousand cells were seeded into each well in 40 μL of RPMI 1640 media. […] After incubation, luminescence was read on a PHERAstar FSX Plate Reader (BMG). BCL-XL degradation at each indicated concentration was normalized with the DMSO control. The BCL-XL degradation curves were plotted using a four-parameter logistic model. For compounds displaying hook effects, the curve fitting was performed using the bottom point of the hook curves (i.e., the point of Ymin) as the bottom plateau to calculate EC50.

T1 sequence (Q07817 whole entry): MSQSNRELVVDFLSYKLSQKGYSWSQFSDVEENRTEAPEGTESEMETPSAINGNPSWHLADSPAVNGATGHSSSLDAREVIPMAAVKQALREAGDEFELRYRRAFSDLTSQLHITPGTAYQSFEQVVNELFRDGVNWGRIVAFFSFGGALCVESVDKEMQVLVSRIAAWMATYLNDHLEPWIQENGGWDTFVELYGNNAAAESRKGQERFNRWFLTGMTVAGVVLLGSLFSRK

Compound	Ymin (24 h)	DC50 (24 h, read-out: EC50 (24 h)) [nM]	Ymin (6 h)	DC50 (6 h, read-out: EC50 (6 h)) [nM]
Cc1c(OCC[C@H]2CC23CCN(CC(=O)Nc2ccc4c(C5CCC(=O)NC5=O)nn(C)c4c2)CC3)cccc1-c1ccc(N2CCc3cccc(C(=O)Nc4nc5ccccc5s4)c3C2)nc1C(=O)O (stereo in doubt) [Compound 289b, 6-(8-(benzo[d]thiazol-2-ylcarbamoyl)-3,4-dihydroisoquinolin-2(1H)-yl)-3-(3-(2-((1R)-6-(2-((3-(2,6-dioxopiperidin-3-yl)-1-methyl-1H-indazol-6-yl)amino)-2-oxoethyl)-6-azaspiro[2.5]octan-1-yl)ethoxy)-2-methylphenyl)picolinic acid]	A (Ymin < 50%)	< 100	–	–
Cc1c(OCCC2CCN(CC(=O)Nc3cccc4c(C5CCC(=O)NC5=O)nn(C)c34)CC2)cccc1-c1ccc(N2CCc3cccc(C(=O)Nc4nc5ccccc5s4)c3C2)nc1C(=O)O (centres unmarked) [Compound 101, 6-[8-(1,3-benzothiazol-2-ylcarbamoyl)-3,4-dihydro-1H-isoquinolin-2-yl]-3-[3-[2-[1-[2-[[3-(2,6-dioxo-3-piperidyl)-1-methyl-indazol-7-yl]amino]-2-oxo-ethyl]-4-piperidyl]ethoxy]-2-methyl-phenyl]pyridine-2-carboxylic acid]	B (50% ≤ Ymin < 70%)	< 100	B (50% ≤ Ymin < 70%)	< 100
Cc1c(Oc2ccc(CCC(=O)Nc3ccc(C4CCC(=O)NC4=O)cc3)cc2)cccc1-c1ccc(N2CCc3cccc(C(=O)Nc4nc5ccccc5s4)c3C2)nc1C(=O)O (centres unmarked) [Compound 102, 6-[8-(1,3-benzothiazol-2-ylcarbamoyl)-3,4-dihydro-1H-isoquinolin-2-yl]-3-[3-[4-[3-[4-(2,6-dioxo-3-piperidyl)anilino]-3-oxo-propyl]phenoxy]-2-methyl-phenyl]pyridine-2-carboxylic acid]	–	–	B (50% ≤ Ymin < 70%)	< 100
Cc1c(OCCN2CCN(CC(=O)Nc3ccc4c(C5CCC(=O)NC5=O)nn(C)c4c3)CC2)cccc1-c1ccc(N2CCc3cccc(C(=O)Nc4nc5ccccc5s4)c3C2)nc1C(=O)O (centres unmarked) [Compound 103, 6-[8-(1,3-benzothiazol-2-ylcarbamoyl)-3,4-dihydro-1H-isoquinolin-2-yl]-3-[3-[2-[4-[2-[[3-(2,6-dioxo-3-piperidyl)-1-methyl-indazol-6-yl]amino]-2-oxo-ethyl]piperazin-1-yl]ethoxy]-2-methyl-phenyl]pyridine-2-carboxylic acid]	A (Ymin < 50%)	< 100	A (Ymin < 50%)	< 100
Cc1c(OCCCN2CCN(CC(=O)Nc3ccc4c(C5CCC(=O)NC5=O)nn(C)c4c3)CC2)cccc1-c1ccc(N2CCc3cccc(C(=O)Nc4nc5ccccc5s4)c3C2)nc1C(=O)O (centres unmarked) [Compound 104, 6-[8-(1,3-benzothiazol-2-ylcarbamoyl)-3,4-dihydro-1H-isoquinolin-2-yl]-3-[3-[3-[4-[2-[[3-(2,6-dioxo-3-piperidyl)-1-methyl-indazol-6-yl]amino]-2-oxo-ethyl]piperazin-1-yl]propoxy]-2-methyl-phenyl]pyridine-2-carboxylic acid]	A (Ymin < 50%)	< 100	B (50% ≤ Ymin < 70%)	< 100
Cc1c(OCCCN2CCN(CC(=O)Nc3cccc4c(C5CCC(=O)NC5=O)nn(C)c34)CC2)cccc1-c1ccc(N2CCc3cccc(C(=O)Nc4nc5ccccc5s4)c3C2)nc1C(=O)O (centres unmarked) [Compound 105, 6-[8-(1,3-benzothiazol-2-ylcarbamoyl)-3,4-dihydro-1H-isoquinolin-2-yl]-3-[3-[3-[4-[2-[[3-(2,6-dioxo-3-piperidyl)-1-methyl-indazol-7-yl]amino]-2-oxo-ethyl]piperazin-1-yl]propoxy]-2-methyl-phenyl]pyridine-2-carboxylic acid]	B (50% ≤ Ymin < 70%)	100 to 1000	B (50% ≤ Ymin < 70%)	< 100
Cc1c(OCCC2CCN(CC(=O)Nc3ccc4c(C5CCC(=O)NC5=O)nn(C)c4c3)CC2)cccc1-c1ccc(N2CCc3cccc(C(=O)Nc4nc5ccccc5s4)c3C2)nc1C(=O)O (centres unmarked) [Compound 106, 6-[8-(1,3-benzothiazol-2-ylcarbamoyl)-3,4-dihydro-1H-isoquinolin-2-yl]-3-[3-[2-[1-[2-[[3-(2,6-dioxo-3-piperidyl)-1-methyl-indazol-6-yl]amino]-2-oxo-ethyl]-4-piperidyl]ethoxy]-2-methyl-phenyl]pyridine-2-carboxylic acid]	A (Ymin < 50%)	< 100	A (Ymin < 50%)	< 100
Cc1c(Oc2ccc(CCC(=O)Nc3ccc4c(C5CCC(=O)NC5=O)nn(C)c4c3)cc2)cccc1-c1ccc(N2CCc3cccc(C(=O)Nc4nc5ccccc5s4)c3C2)nc1C(=O)O (centres unmarked) [Compound 107, 6-[8-(1,3-benzothiazol-2-ylcarbamoyl)-3,4-dihydro-1H-isoquinolin-2-yl]-3-[3-[4-[3-[[3-(2,6-dioxo-3-piperidyl)-1-methyl-indazol-6-yl]amino]-3-oxo-propyl]phenoxy]-2-methyl-phenyl]pyridine-2-carboxylic acid]	C (Ymin ≥ 70%)	1000 to 10000	C (Ymin ≥ 70%)	1000 to 10000
Cc1c(-c2ccc(N3CCc4cccc(C(=O)Nc5nc6ccccc6s5)c4C3)nc2C(=O)NCCCCCC(=O)Nc2cccc3c(C4CCC(=O)NC4=O)nn(C)c23)cnn1CC12CC3CC(CC(C3)C1)C2 (centres unmarked) [Compound 108, 2-(5-(1-(((3r,5r,7r)-adamantan-1-yl)methyl)-5-methyl-1H-pyrazol-4-yl)-6-((6-((3-(2,6-dioxopiperidin-3-yl)-1-methyl-1H-indazol-7-yl)amino)-6-oxohexyl)carbamoyl)pyridin-2-yl)-N-(benzo[d]thiazol-2-yl)-1,2,3,4-tetrahydroisoquinoline-8-carboxamide]	–	–	B (50% ≤ Ymin < 70%)	< 100
Cc1c(-c2ccc(N3CCc4cccc(C(=O)Nc5nc6ccccc6s5)c4C3)nc2C(=O)NCCCCCCCCCC(=O)Nc2cccc3c(C4CCC(=O)NC4=O)nn(C)c23)cnn1CC12CC3CC(CC(C3)C1)C2 [Compound 109, 2-(5-(1-((3R, 5R, 7R)-adamantan-1-ylmethyl)-5-methyl-1H-pyrazol-4-yl)-6-((10-((3-(2,6-dioxopiperidin-3-yl)-1-methyl-1H-indazol-7-yl)amino)-10-oxodecyl)carbamoyl)pyridin-2-yl)-N-(benzo[d]thiazol-2-yl)-1,2,3,4-tetrahydroisoquinoline-8-carboxamide]	–	–	B (50% ≤ Ymin < 70%)	< 100
Cc1c(-c2ccc(N3CCc4cccc(C(=O)Nc5nc6ccccc6s5)c4C3)nc2C(=O)NCCCCCCCCCCCC(=O)Nc2cccc3c(C4CCC(=O)NC4=O)nn(C)c23)cnn1CC12CC3CC(CC(C3)C1)C2 (centres unmarked) [Compound 110, 2-(5-(1-((3r,5r,7r)-adamantan-1-ylmethyl)-5-methyl-1H-pyrazol-4-yl)-6-((12-((3-(2,6-dioxopiperidin-3-yl)-1-methyl-1H-indazol-7-yl)amino)-12-oxododecyl)carbamoyl)pyridin-2-yl)-N-(benzo[d]thiazol-2-yl)-1,2,3,4-tetrahydroisoquinoline-8-carboxamide]	–	–	B (50% ≤ Ymin < 70%)	< 100
Cc1c(-c2ccc(N3CCc4cccc(C(=O)Nc5nc6ccccc6s5)c4C3)nc2C(=O)NCCCCCC(=O)Nc2ccc3c(C4CCC(=O)NC4=O)nn(C)c3c2)cnn1CC12CC3CC(CC(C3)C1)C2 (centres unmarked) [Compound 111, 2-(5-(1-(((3r,5r,7r)-adamantan-1-yl)methyl)-5-methyl-1H-pyrazol-4-yl)-6-((6-((3-(2,6-dioxopiperidin-3-yl)-1-methyl-1H-indazol-6-yl)amino)-6-oxohexyl)carbamoyl)pyridin-2-yl)-N-(benzo[d]thiazol-2-yl)-1,2,3,4-tetrahydroisoquinoline-8-carboxamide]	–	–	B (50% ≤ Ymin < 70%)	< 100
Cc1c(-c2ccc(N3CCc4cccc(C(=O)Nc5nc6ccccc6s5)c4C3)nc2C(=O)NCCCCCCCCCC(=O)Nc2ccc3c(C4CCC(=O)NC4=O)nn(C)c3c2)cnn1CC12CC3CC(CC(C3)C1)C2 (centres unmarked) [Compound 112, 2-[5-[1-(1-adamantylmethyl)-5-methyl-pyrazol-4-yl]-6-[[10-[[3-(2,6-dioxo-3-piperidyl)-1-methyl-indazol-6-yl]amino]-10-oxo-decyl]carbamoyl]-2-pyridyl]-N-(1,3-benzothiazol-2-yl)-3,4-dihydro-1H-isoquinoline-8-carboxamide]	–	–	B (50% ≤ Ymin < 70%)	< 100
